Results: patent US20140094424A1, “MICROBICIDAL COMPOSITIONS AND METHODS OF PRODUCTION USE THEREOF” (priority 2011, published 2014)

Tests used:
Experiment in all cases: MBC (minimum bactericidal concentration) test in Wash NEXT reagent
Assay type in all cases: cell-based
[1] = test system: Pseudomonas aeruginosa (L)
[2] = test system: Pseudomonas fluorescens (D)
[3] = test system: Pseudomonas aeruginosa (AY)
[4] = at 72 hours, listed as Na Azide

[N-]=[N+]=[N-] [Sodium Azide, sodium azide]
MBC test growth score ([1]; 10% preservative, 8 hour): +
MBC test growth score ([1]; 10% preservative, 24 hour): +
MBC test growth score ([1]; 10% preservative, 48 hour): +
MBC test growth score ([1]; 10% preservative, 72 hour): +
MBC test growth score ([1]; 20% preservative, 8 hour): +
MBC test growth score ([1]; 20% preservative, 24 hour): +
MBC test growth score ([1]; 20% preservative, 48 hour): +
MBC test growth score ([1]; 20% preservative, 72 hour): +
MBC test growth score ([1]; 30% preservative, 8 hour): +
MBC test growth score ([1]; 30% preservative, 24 hour): +
MBC test growth score ([1]; 30% preservative, 48 hour): +
MBC test growth score ([1]; 30% preservative, 72 hour): +
MBC test growth score ([1]; 40% preservative, 8 hour): +
MBC test growth score ([1]; 40% preservative, 24 hour): +
MBC test growth score ([1]; 40% preservative, 48 hour): +
MBC test growth score ([1]; 40% preservative, 72 hour): +
MBC test growth score ([1]; 50% preservative, 8 hour): +
MBC test growth score ([1]; 50% preservative, 24 hour): +
MBC test growth score ([1]; 50% preservative, 48 hour): +
MBC test growth score ([1]; 50% preservative, 72 hour): +
MBC test growth score ([1]; 60% preservative, 8 hour): +
MBC test growth score ([1]; 60% preservative, 24 hour): +
MBC test growth score ([1]; 60% preservative, 48 hour): +
MBC test growth score ([1]; 60% preservative, 72 hour): +
MBC test growth score ([1]; 70% preservative, 8 hour): +
MBC test growth score ([1]; 70% preservative, 24 hour): +
MBC test growth score ([1]; 70% preservative, 48 hour): +
MBC test growth score ([1]; 70% preservative, 72 hour): +
MBC test growth score ([1]; 80% preservative, 8 hour): +
MBC test growth score ([1]; 80% preservative, 24 hour): +
MBC test growth score ([1]; 80% preservative, 48 hour): +
MBC test growth score ([1]; 80% preservative, 72 hour): +
MBC test growth score ([1]; 90% preservative, 8 hour): +
MBC test growth score ([1]; 90% preservative, 24 hour): +
MBC test growth score ([1]; 90% preservative, 48 hour): +
MBC test growth score ([1]; 90% preservative, 72 hour): +
MBC test growth score ([1]; 100% preservative, 8 hour): +
MBC test growth score ([1]; 100% preservative, 24 hour): +
MBC test growth score ([1]; 100% preservative, 48 hour): +
MBC test growth score ([1]; 100% preservative, 72 hour): +
total kill at % preservative (MBC) [1, 4]: No kill @ 100%
MBC test growth score ([2]; 10% preservative, 8 hour): +
MBC test growth score ([2]; 10% preservative, 24 hour): +
MBC test growth score ([2]; 10% preservative, 48 hour): +
MBC test growth score ([2]; 10% preservative, 72 hour): +
MBC test growth score ([2]; 20% preservative, 8 hour): +
MBC test growth score ([2]; 20% preservative, 24 hour): +
MBC test growth score ([2]; 20% preservative, 48 hour): +
MBC test growth score ([2]; 20% preservative, 72 hour): +
MBC test growth score ([2]; 30% preservative, 8 hour): +
MBC test growth score ([2]; 30% preservative, 24 hour): +
MBC test growth score ([2]; 30% preservative, 48 hour): +
MBC test growth score ([2]; 30% preservative, 72 hour): +
MBC test growth score ([2]; 40% preservative, 8 hour): +
MBC test growth score ([2]; 40% preservative, 24 hour): +
MBC test growth score ([2]; 40% preservative, 48 hour): +
MBC test growth score ([2]; 40% preservative, 72 hour): +
MBC test growth score ([2]; 50% preservative, 8 hour): +
MBC test growth score ([2]; 50% preservative, 24 hour): +
MBC test growth score ([2]; 50% preservative, 48 hour): +
MBC test growth score ([2]; 50% preservative, 72 hour): +
MBC test growth score ([2]; 60% preservative, 8 hour): +
MBC test growth score ([2]; 60% preservative, 24 hour): +
MBC test growth score ([2]; 60% preservative, 48 hour): +
MBC test growth score ([2]; 60% preservative, 72 hour): +
MBC test growth score ([2]; 70% preservative, 8 hour): +
MBC test growth score ([2]; 70% preservative, 24 hour): +
MBC test growth score ([2]; 70% preservative, 48 hour): +
MBC test growth score ([2]; 70% preservative, 72 hour): +
MBC test growth score ([2]; 80% preservative, 8 hour): +
MBC test growth score ([2]; 80% preservative, 24 hour): +
MBC test growth score ([2]; 80% preservative, 48 hour): +
MBC test growth score ([2]; 80% preservative, 72 hour): +
MBC test growth score ([2]; 90% preservative, 8 hour): +
MBC test growth score ([2]; 90% preservative, 24 hour): +
MBC test growth score ([2]; 90% preservative, 48 hour): +
MBC test growth score ([2]; 90% preservative, 72 hour): +
MBC test growth score ([2]; 100% preservative, 8 hour): +
MBC test growth score ([2]; 100% preservative, 24 hour): +
MBC test growth score ([2]; 100% preservative, 48 hour): +
MBC test growth score ([2]; 100% preservative, 72 hour): +
total kill at % preservative (MBC) [2, 4]: No kill @ 100%
MBC test growth score ([3]; 10% preservative, 8 hour): +
MBC test growth score ([3]; 10% preservative, 24 hour): +
MBC test growth score ([3]; 10% preservative, 48 hour): +
MBC test growth score ([3]; 10% preservative, 72 hour): +
MBC test growth score ([3]; 20% preservative, 8 hour): +
MBC test growth score ([3]; 20% preservative, 24 hour): +
MBC test growth score ([3]; 20% preservative, 48 hour): +
MBC test growth score ([3]; 20% preservative, 72 hour): +
MBC test growth score ([3]; 30% preservative, 8 hour): +
MBC test growth score ([3]; 30% preservative, 24 hour): +
MBC test growth score ([3]; 30% preservative, 48 hour): +
MBC test growth score ([3]; 30% preservative, 72 hour): +
MBC test growth score ([3]; 40% preservative, 8 hour): +
MBC test growth score ([3]; 40% preservative, 24 hour): +
MBC test growth score ([3]; 40% preservative, 48 hour): +
MBC test growth score ([3]; 40% preservative, 72 hour): +
MBC test growth score ([3]; 50% preservative, 8 hour): +
MBC test growth score ([3]; 50% preservative, 24 hour): +
MBC test growth score ([3]; 50% preservative, 48 hour): +
MBC test growth score ([3]; 50% preservative, 72 hour): +
MBC test growth score ([3]; 60% preservative, 8 hour): +
MBC test growth score ([3]; 60% preservative, 24 hour): +
MBC test growth score ([3]; 60% preservative, 48 hour): +
MBC test growth score ([3]; 60% preservative, 72 hour): +
MBC test growth score ([3]; 70% preservative, 8 hour): +
MBC test growth score ([3]; 70% preservative, 24 hour): +
MBC test growth score ([3]; 70% preservative, 48 hour): +
MBC test growth score ([3]; 70% preservative, 72 hour): +
MBC test growth score ([3]; 80% preservative, 8 hour): +
MBC test growth score ([3]; 80% preservative, 24 hour): +
MBC test growth score ([3]; 80% preservative, 48 hour): +
MBC test growth score ([3]; 80% preservative, 72 hour): +
MBC test growth score ([3]; 90% preservative, 8 hour): +
MBC test growth score ([3]; 90% preservative, 24 hour): +
MBC test growth score ([3]; 90% preservative, 48 hour): +
MBC test growth score ([3]; 90% preservative, 72 hour): +
MBC test growth score ([3]; 100% preservative, 8 hour): +
MBC test growth score ([3]; 100% preservative, 24 hour): +
MBC test growth score ([3]; 100% preservative, 48 hour): +
MBC test growth score ([3]; 100% preservative, 72 hour): +
total kill at % preservative (MBC) [3, 4]: No kill @ 100%
